SMILES strings stand for the structures.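 Grown in 96-well plates, cells were treated for 48 hours with each compound at five concentrations. Insufficient inhibition: endpoint recorded as highest concentration tested. GI50 marks 50% less growth. TGI denotes the concentration required for complete inhibition of growth.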

Some test systems named below: OVCAR-5 ovarian; CCRF-CEM leukemia; HL-60(TB) leukemia; MOLT-4 leukemia; SF-295 CNS; HCT-116 colon; NCI/ADR-RES ovarian; HS 578T breast; MDA-MB-435.
Assay in all cases: growth of human tumour cells (NCI), 48 h

Turning to `Cc1cc(NCCCCCCCCNc2cc(C)nc3cc(N)ccc23)c2ccc(N)cc2n1`, the TGI in the assay with OVCAR-5 ovarian is greater than 100 µM; in the assay on CCRF-CEM leukemia, 30.8 µM; with HL-60(TB) leukemia, 4.88 µM; in the assay with MOLT-4 leukemia, greater than 100 µM; with SF-295 CNS, 42 µM.

With `N#CCCN(c1ccc(C=Nc2ccccc2)cc1)S(=O)(=O)c1ccccc1`, the TGI in the assay with CCRF-CEM leukemia, in the assay with HCT-116 colon, in the assay with HL-60(TB) leukemia, in the assay on MOLT-4 leukemia and with SF-295 CNS was greater than 100 µM throughout.

With `Cc1nc(-n2nc(-c3ccccc3)cc2-c2ccccc2)sc1C(=O)/C=C/c1ccc(/C=C/C(=O)c2sc(-n3nc(-c4ccccc4)cc3-c3ccccc3)nc2C)cc1`, the TGI was 57.5 µM in the assay on OVCAR-5 ovarian; 96.7 µM with CCRF-CEM leukemia; 37.4 µM in the assay with HCT-116 colon; greater than 100 µM in the assay with HL-60(TB) leukemia; 68.6 µM in the assay on MOLT-4 leukemia; 51.8 µM in the assay on SF-295 CNS.

As to `C[C@@H](NC1CCCC[C@H]1O)c1ccccc1` (stereo partly drawn), the TGI with CCRF-CEM leukemia, in the assay with HCT-116 colon, in the assay on HL-60(TB) leukemia, with MOLT-4 leukemia and in the assay with SF-295 CNS was greater than 100 µM throughout.

For `O=C(NCCCCCCCCCCCCNC(=O)c1cccc2ccccc12)c1cccc2ccccc12`, the TGI was greater than 100 µM with OVCAR-5 ovarian; greater than 100 µM in the assay on CCRF-CEM leukemia; greater than 100 µM with HCT-116 colon; greater than 80.1 µM with HL-60(TB) leukemia; greater than 100 µM in the assay with MOLT-4 leukemia; greater than 83 µM in the assay on SF-295 CNS.

With `CN1c2ccccc2N(C(=O)c2ccc([N+](=O)[O-])cc2)C(CC(=O)O)c2cccn21` (stereo not drawn), the TGI in the assay with OVCAR-5 ovarian, in the assay on CCRF-CEM leukemia, with HL-60(TB) leukemia, with MOLT-4 leukemia and in the assay with SF-295 CNS was greater than 100 µM throughout.

On to `Cn1cc(C(=O)c2ccccc2)c2ccccc2c1=O`, for which the TGI in the assay with CCRF-CEM leukemia, with HCT-116 colon, in the assay on HL-60(TB) leukemia, with MOLT-4 leukemia and in the assay with SF-295 CNS was greater than 100 µM each time.

Consider `Nc1ncnc2c1ncn2[C@]1(CO)C=C(CO)C(O)C1O` (stereo partly drawn), for which the TGI with OVCAR-5 ovarian, in the assay with HCT-116 colon, in the assay on HL-60(TB) leukemia, in the assay with MOLT-4 leukemia and in the assay with SF-295 CNS was greater than 100 µM throughout.

As for `COc1ccc(C(c2cc(OC)c(OC)c(OC)c2)n2ccnc2)cc1O` (stereo not drawn), the GI50 with OVCAR-5 ovarian is 0.648 µM; with CCRF-CEM leukemia it was 0.289 µM; in the assay on HCT-116 colon it was 0.249 µM; in the assay with NCI/ADR-RES ovarian, 1.92 µM; in the assay on HS 578T breast it was 0.414 µM; in the assay on HL-60(TB) leukemia it was 0.229 µM. In addition, the GI50 in the assay with MOLT-4 leukemia was 0.565 µM. Also, the TGI with OVCAR-5 ovarian was greater than 100 µM; in the assay on CCRF-CEM leukemia, greater than 100 µM; in the assay on HCT-116 colon, greater than 100 µM; in the assay on NCI/ADR-RES ovarian it was greater than 100 µM; with HS 578T breast it was greater than 100 µM; with HL-60(TB) leukemia, 0.628 µM. For the same molecule, in the assay with MOLT-4 leukemia, the TGI was greater than 100 µM.

Turning to `O=C(N/C(=C\c1ccc(Cl)cc1)c1nc2ccccc2[nH]1)c1ccccc1`, the TGI in the assay with OVCAR-5 ovarian worked out at 85 µM; with CCRF-CEM leukemia, 57.3 µM; in the assay with HCT-116 colon, 29.1 µM; in the assay on MOLT-4 leukemia it was 43.2 µM.

With `COc1ccc(C/C(=N/O)C(=O)NCCc2cc(Br)c(OCCCN(C)C)c(Br)c2)cc1Br`, the TGI with OVCAR-5 ovarian came out at 49.2 µM; in the assay on HCT-116 colon, 28 µM; with HL-60(TB) leukemia, 28.1 µM; in the assay with SF-295 CNS, 34.7 µM.

`N#Cc1c(-c2ccc(Cl)c(Cl)c2)c(-c2ccc(Cl)c(Cl)c2)nn(CC(=O)O)c1=O`: the TGI in the assay on OVCAR-5 ovarian, in the assay on CCRF-CEM leukemia, with HCT-116 colon, with HL-60(TB) leukemia, in the assay with MOLT-4 leukemia and with SF-295 CNS was greater than 100 µM in each case.

Take `O=C(/C=C/c1cc(Cl)cc(Cl)c1O)c1cccc(O)c1`: the TGI is 28.3 µM with OVCAR-5 ovarian; greater than 100 µM in the assay with CCRF-CEM leukemia; greater than 100 µM with HCT-116 colon; 93.9 µM with HL-60(TB) leukemia; 46.6 µM in the assay on MOLT-4 leukemia; 28.5 µM with SF-295 CNS.

In the case of `COC(=O)C(C(=O)C(=O)Nc1c(C)cccc1C)c1cnc2ccccc2n1` (stereo not drawn), the TGI in the assay with OVCAR-5 ovarian, with CCRF-CEM leukemia, in the assay with HCT-116 colon, in the assay with HL-60(TB) leukemia, in the assay on MOLT-4 leukemia and in the assay with SF-295 CNS was greater than 100 µM each time.

Turning to `CN(C)C=Nc1ccn(CCO)c(=O)n1`, the TGI in the assay with OVCAR-5 ovarian, with CCRF-CEM leukemia, in the assay with HCT-116 colon, with HL-60(TB) leukemia and with MOLT-4 leukemia was greater than 100 µM in each case.

`Cc1cn(C2CC(O)C(COC(=O)c3ccccc3)O2)c(=O)[nH]c1=O` (stereo not drawn): the TGI in the assay on OVCAR-5 ovarian, in the assay on CCRF-CEM leukemia, in the assay on HCT-116 colon, with HL-60(TB) leukemia, in the assay on MOLT-4 leukemia and with SF-295 CNS was greater than 100 µM in each case.

`COc1ccc(NC(=O)C(=O)c2c(O)c3ccc(O)cc3oc2=O)c([N+](=O)[O-])c1`: the TGI in the assay with OVCAR-5 ovarian, in the assay on CCRF-CEM leukemia, with HCT-116 colon, with HL-60(TB) leukemia, in the assay on MOLT-4 leukemia and in the assay on SF-295 CNS was greater than 100 µM throughout.

On to `CCCCCN(CCCCC)C(=O)[C@@H](CCC(=O)O)NC(=O)c1cc2ccccc2[nH]1`, for which the TGI is greater than 100 µM in the assay with OVCAR-5 ovarian; 61 µM in the assay with CCRF-CEM leukemia; 34.2 µM with HCT-116 colon; 41.2 µM in the assay on HL-60(TB) leukemia; 46.6 µM in the assay on MOLT-4 leukemia; greater than 100 µM in the assay with SF-295 CNS.

With `CC(C)(O)[C@@H]1CC[C@@]2(C)CCCC(O)C2(O)C1` (stereo partly drawn), the TGI in the assay with OVCAR-5 ovarian, in the assay with CCRF-CEM leukemia, in the assay on HCT-116 colon, in the assay on HL-60(TB) leukemia, in the assay on MOLT-4 leukemia and in the assay with SF-295 CNS was greater than 100 µM in each case.

As to `Cc1c(Cl)cccc1NC(=O)C(=O)C(C(=O)c1ccccc1-c1ccccc1)C1OC(=O)c2ccccc21` (stereo not drawn), the TGI is 46.9 µM in the assay on OVCAR-5 ovarian; 96.9 µM in the assay with CCRF-CEM leukemia; 25 µM in the assay on HCT-116 colon; 49.8 µM with HL-60(TB) leukemia; 57.8 µM with MOLT-4 leukemia; 45 µM in the assay on SF-295 CNS.

Take `N.N.N.N.N.[Co+3].[I-].[N-]=[N+]=[N-]`: the GI50 in the assay with OVCAR-5 ovarian is greater than 100 µM; with CCRF-CEM leukemia, greater than 100 µM; in the assay on HCT-116 colon it was greater than 100 µM; in the assay on MOLT-4 leukemia, 5.41 µM; with SF-295 CNS, greater than 100 µM. In addition, the TGI in the assay on OVCAR-5 ovarian, in the assay with CCRF-CEM leukemia, with HCT-116 colon, in the assay on MOLT-4 leukemia and in the assay on SF-295 CNS was greater than 100 µM throughout.

On to `C/C(=C1/N=C(c2cc([N+](=O)[O-])ccc2Cl)N(c2cccc(C)c2)C1=O)c1cc2ccccc2oc1=O`, for which the TGI with OVCAR-5 ovarian, in the assay with CCRF-CEM leukemia, in the assay with HCT-116 colon, in the assay with HL-60(TB) leukemia, in the assay on MOLT-4 leukemia and in the assay on SF-295 CNS was greater than 100 µM in each case.

As to `COC(=O)C(Cc1cc(OC)c(OC)c(OC)c1)C(=O)OC`, the TGI in the assay on OVCAR-5 ovarian, in the assay on CCRF-CEM leukemia, in the assay on HL-60(TB) leukemia, in the assay on MOLT-4 leukemia and in the assay on SF-295 CNS was greater than 320 µM throughout.

Turning to `O=C1C2Nc3ccccc3SC2C(=O)N1c1ccc(Br)cc1` (stereo not drawn), the TGI in the assay with OVCAR-5 ovarian, in the assay with MOLT-4 leukemia and with SF-295 CNS was greater than 100 µM each time.

Take `Cn1c2c(c3ccccc31)CCN(CCCCN1CCCCC1)C2=O`: the TGI in the assay on OVCAR-5 ovarian, with CCRF-CEM leukemia, with HCT-116 colon, in the assay with HL-60(TB) leukemia, in the assay with MOLT-4 leukemia and in the assay with SF-295 CNS was greater than 100 µM each time.

Regarding `CN(CCN1C(=O)c2cc([N+](=O)[O-])cc3cc([N+](=O)[O-])cc(c23)C1=O)CCN1C(=O)c2cc([N+](=O)[O-])cc3cc([N+](=O)[O-])cc(c23)C1=O`, the TGI is greater than 45.6 µM with OVCAR-5 ovarian; 4.03 µM with CCRF-CEM leukemia; 9.18 µM with HCT-116 colon; 0.536 µM in the assay on HL-60(TB) leukemia; greater than 100 µM with SF-295 CNS.

On to `Cc1ccc(S(=O)(=O)OCCn2cnc3nc(NC(=O)c4ccccc4)[nH]c(=O)c32)cc1`, for which the TGI in the assay on OVCAR-5 ovarian, in the assay on CCRF-CEM leukemia, with HCT-116 colon, with HL-60(TB) leukemia and with SF-295 CNS was greater than 100 µM throughout.

Regarding `Cc1cc(S(=O)(=O)Nc2nc3ccccc3o2)c(SCc2ccccc2)cc1Cl`, the GI50 in the assay with MDA-MB-435 was 19.8 µM; with OVCAR-5 ovarian it was 20.3 µM; in the assay with HCT-116 colon, 13.8 µM; in the assay with NCI/ADR-RES ovarian it was 20 µM; in the assay on HS 578T breast, 29.5 µM; in the assay on HL-60(TB) leukemia, 36.9 µM. The GI50 in the assay with MOLT-4 leukemia is 24.4 µM; with SF-295 CNS it was 19.2 µM. Moreover, the TGI in the assay on MDA-MB-435 is 42.7 µM; in the assay with OVCAR-5 ovarian it was 46.1 µM; in the assay with HCT-116 colon, 33.4 µM; in the assay with NCI/ADR-RES ovarian, 40.9 µM; with HS 578T breast it was 78.9 µM; in the assay on HL-60(TB) leukemia, greater than 100 µM. Besides, the TGI in the assay on MOLT-4 leukemia was greater than 100 µM; in the assay with SF-295 CNS, 57 µM.

For the origin of these results see PubChem BioAssay (NCI).
